# Columns and labels:
# [1] = tested on: T47D (PI3Kα-H1047R) cell line; experiment: HTRF phospho-AKT(S473) cell assay in T47D cells; type: cell-based, human; conditions: Homo sapiens; T47D (PI3Kα-H1047R) cells, HTRF phospho-AKT(S473), 2 hours compound incubation
# Procedure, shortened: (§1)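 Cells plated overnight (T47D in RPMI/10% FBS/0.2 units/mL insulin; SKBR3 in McCoy's 5A/10% FBS), then given 12-point 1:3 compound series (top 5 μM T47D, 10 μM SKBR3; ≤0.5% DMSO) for 2 h at 37° C. SKBR3 stimulated with 70 ng/ml PDGF-BB for final 15 min. Lysate pAKT(S473) by HTRF; IC50 calculated.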
# [2] = tested on: SKBR3 (PI3Kα-Wild Type) cell line; experiment: HTRF phospho-AKT(S473) cell assay in SKBR3 cells; type: cell-based, human; conditions: Homo sapiens, SK-BR-3; SKBR3 (PI3Kα-Wild Type) cells, HTRF phospho-AKT(S473), 2 hours compound incubation, PDGF-BB stimulated
# Procedure, shortened: as §1
SMILES,IC50 [1],IC50 [2]
"Cc1cc([C@@H](C)Nc2ccc(Cl)nc2C(=O)NS(C)(=O)=O)c2nc(N3CCC[C@H](Oc4cnc(C)cn4)C3)n(C)c(=O)c2c1 [Compound 383, 6-chloro-3-(((R)-1-(3,6-dimethyl-2-((S)-3-((5-methylpyrazin-2-yl)oxy)piperidin-1-yl)-4-oxo-3,4-dihydroquinazolin-8-yl)ethyl)amino)-N-(methylsulfonyl) picolinamide]",250 to 500 nM,≥ 5000 nM
"Cc1cc([C@@H](C)Nc2ccc(Cl)nc2C(=O)NS(C)(=O)=O)c2nc(N3C[C@@H]4[C@H](C3)[C@H]4c3ccnc(C)c3)n(C)c(=O)c2c1 [Compound 384, 6-chloro-3-(((R)-1-(3,6-dimethyl-2-((1R,5S,6S)-6-(2-methylpyridin-4-yl)-3-azabicyclo[3.1.0]hexan-3-yl)-4-oxo-3,4-dihydroquinazolin-8-yl)ethyl)amino)-N-(methylsulfonyl) picolinamide]",< 250 nM,1000 to 5000 nM
"Cc1cc([C@@H](C)Nc2ccc(Cl)nc2C(=O)NS(C)(=O)=O)c2nc(N3C[C@@H]4[C@H](C3)[C@H]4c3cccnc3C)n(C)c(=O)c2c1 [Compound 385, 6-chloro-3-(((R)-1-(3,6-dimethyl-2-((1R,5S,6S)-6-(2-methylpyridin-3-yl)-3-azabicyclo[3.1.0]hexan-3-yl)-4-oxo-3,4-dihydroquinazolin-8-yl)ethyl)amino)-N-(methylsulfonyl) picolinamide]",< 250 nM,1000 to 5000 nM
"C[C@@H](Nc1ccc(Cl)nc1C(=O)NS(C)(=O)=O)c1cc(C2CC2)cc2c(=O)n(C)c(N3C[C@@H]4[C@H](C3)[C@H]4c3cnn(C)c3)nc12 [Compound 386, 6-chloro-3-(((R)-1-(6-cyclopropyl-3-methyl-2-((1R,5S,6S)-6-(1-methyl-1H-pyrazol-4-yl)-3-azabicyclo[3.1.0]hexan-3-yl)-4-oxo-3,4-dihydroquinazolin-8-yl)ethyl)amino)-N-(methylsulfonyl) picolinamide]",< 250 nM,1000 to 5000 nM
"Cc1cc([C@@H](C)Nc2ccc(Cl)nc2C(=O)NS(C)(=O)=O)c2nc(N3C[C@@H]4[C@H](C3)[C@H]4c3ccc(C#N)cn3)n(C)c(=O)c2c1 [Compound 392, 6-chloro-3-(((R)-1-(2-((1R,5S,6R)-6-(5-cyanopyridin-2-yl)-3-azabicyclo[3.1.0]hexan-3-yl)-3,6-dimethyl-4-oxo-3,4-dihydroquinazolin-8-yl)ethyl)amino)-N-(methylsulfonyl) picolinamide]",250 to 500 nM,1000 to 5000 nM
"Cc1cc([C@@H](C)Nc2ccc(Cl)nc2C(=O)NS(C)(=O)=O)c2nc(N3C[C@@H]4[C@H](C3)[C@H]4c3ccc(N(C)C)nc3)n(C)c(=O)c2c1 [Compound 393, 6-chloro-3-(((R)-1-(2-((1R,5S,6S)-6-(6-(dimethylamino)pyridin-3-yl)-3-azabicyclo[3.1.0]hexan-3-yl)-3,6-dimethyl-4-oxo-3,4-dihydroquinazolin-8-yl)ethyl)amino)-N-(methylsulfonyl) picolinamide]",250 to 500 nM,≥ 5000 nM
"Cc1cc([C@@H](C)Nc2ccc(Cl)nc2C(=O)NS(C)(=O)=O)c2nc(N3C[C@@H]4[C@H](C3)[C@H]4c3cnc(C)cn3)n(C)c(=O)c2c1 [Compound 394, 6-chloro-3-(((R)-1-(3,6-dimethyl-2-((1R,5S,6R)-6-(5-methylpyrazin-2-yl)-3-azabicyclo[3.1.0]hexan-3-yl)-4-oxo-3,4-dihydroquinazolin-8-yl)ethyl)amino)-N-(methylsulfonyl) picolinamide]",< 250 nM,1000 to 5000 nM
"Cc1cc([C@@H](C)Nc2ccc(Cl)nc2C(=O)NS(C)(=O)=O)c2nc(N3Cc4cn(C)nc4C3)n(C)c(=O)c2c1 [Compound 396, (R)-6-chloro-3-((1-(3,6-dimethyl-2-(2-methyl-2,6-dihydropyrrolo[3,4-c]pyrazol-5(4H)-yl)-4-oxo-3,4-dihydroquinazolin-8-yl)ethyl)amino)-N-(methylsulfonyl) picolinamide]",< 250 nM,1000 to 5000 nM
"C[C@@H](Nc1ccc(Cl)nc1C(=O)NS(C)(=O)=O)c1cc(C2CC2)cc2c(=O)n(C)c(N3CCC(c4nn(C)cc4F)CC3)nc12 [Compound 397, (R)-6-chloro-3-((1-(6-cyclopropyl-2-(4-(4-fluoro-1-methyl-1H-pyrazol-3-yl)piperidin-1-yl)-3-methyl-4-oxo-3,4-dihydroquinazolin-8-yl)ethyl)amino)-N-(methylsulfonyl) picolinamide]",250 to 500 nM,≥ 5000 nM
"Cc1cc([C@@H](C)Nc2ccc(Cl)nc2C(=O)NS(C)(=O)=O)c2nc(N3CCC(c4cncc(C)n4)CC3)n(C)c(=O)c2c1 [Compound 399, (R)-6-chloro-3-((1-(3,6-dimethyl-2-(4-(6-methylpyrazin-2-yl)piperidin-1-yl)-4-oxo-3,4-dihydroquinazolin-8-yl)ethyl)amino)-N-(methylsulfonyl) picolinamide]",< 250 nM,≥ 5000 nM
"COc1cncc(C2CCN(c3nc4c([C@@H](C)Nc5ccc(Cl)nc5C(=O)NS(C)(=O)=O)cc(C)cc4c(=O)n3C)CC2)n1 [Compound 400, (R)-6-chloro-3-((1-(2-(4-(6-methoxypyrazin-2-yl)piperidin-1-yl)-3,6-dimethyl-4-oxo-3,4-dihydroquinazolin-8-yl)ethyl)amino)-N-(methylsulfonyl) picolinamide]",250 to 500 nM,1000 to 5000 nM
"Cc1cc([C@@H](C)Nc2ccc(Cl)nc2C(=O)NS(C)(=O)=O)c2nc(N3C[C@@H]4[C@H](C3)[C@H]4c3nn(C)cc3Cl)n(C)c(=O)c2c1 [Compound 401, 6-chloro-3-(((R)-1-(2-((1R,5S,6R)-6-(4-chloro-1-methyl-1H-pyrazol-3-yl)-3-azabicyclo[3.1.0]hexan-3-yl)-3,6-dimethyl-4-oxo-3,4-dihydroquinazolin-8-yl)ethyl)amino)-N-(methylsulfonyl) picolinamide]",250 to 500 nM,≥ 5000 nM
"Cc1cc([C@@H](C)Nc2ccc(Cl)nc2C(=O)NS(C)(=O)=O)c2nc(N3C[C@@H]4[C@H](C3)[C@H]4c3ccc(C#N)nc3)n(C)c(=O)c2c1 [Compound 402, 6-chloro-3-(((R)-1-(2-((1R,5S,6S)-6-(6-cyanopyridin-3-yl)-3-azabicyclo[3.1.0]hexan-3-yl)-3,6-dimethyl-4-oxo-3,4-dihydroquinazolin-8-yl)ethyl)amino)-N-(methylsulfonyl) picolinamide]",< 250 nM,1000 to 5000 nM

# The next lines start with the values.
IC50 [1],IC50 [2],SMILES
< 250 nM,1000 to 5000 nM,"Cc1cc([C@@H](C)Nc2ccc(Cl)nc2C(=O)NS(C)(=O)=O)c2nc(N3C[C@@H]4[C@H](C3)[C@H]4c3cn(C)nn3)n(C)c(=O)c2c1 [Compound 387, 6-chloro-3-(((R)-1-(3,6-dimethyl-2-((1R,5S,6R)-6-(1-methyl-1H-1,2,3-triazol-4-yl)-3-azabicyclo[3.1.0]hexan-3-yl)-4-oxo-3,4-dihydroquinazolin-8-yl)ethyl)amino)-N-(methylsulfonyl) picolinamide]"
< 250 nM,1000 to 5000 nM,"C[C@@H](Nc1ccc(Cl)nc1C(=O)NS(C)(=O)=O)c1cc(F)cc2c(=O)n(C)c(N3CC[C@H](Oc4cnn(C)c4)C3)nc12 [Compound 388, 6-chloro-3-(((R)-1-(6-fluoro-3-methyl-2-((S)-3-((1-methyl-1H-pyrazol-4-yl)oxy)pyrrolidin-1-yl)-4-oxo-3,4-dihydroquinazolin-8-yl)ethyl)amino)-N-(methylsulfonyl) picolinamide]"
< 250 nM,1000 to 5000 nM,"Cc1cc([C@@H](C)Nc2ccc(Cl)nc2C(=O)NS(C)(=O)=O)c2nc(N3CCC(c4ccnn4C)CC3)n(C)c(=O)c2c1 [Compound 389, (R)-6-chloro-3-((1-(3,6-dimethyl-2-(4-(1-methyl-1H-pyrazol-5-yl)piperidin-1-yl)-4-oxo-3,4-dihydroquinazolin-8-yl)ethyl)amino)-N-(methylsulfonyl) picolinamide]"
< 250 nM,≥ 5000 nM,"Cc1cc([C@@H](C)Nc2ccc(Cl)nc2C(=O)NS(C)(=O)=O)c2nc(-c3ccc(OC[C@@H]4CCN(C)CC4(F)F)nc3)n(C)c(=O)c2c1 [Compound 390, 6-chloro-3-(((R)-1-(2-(6-(((S)-3,3-difluoro-1-methylpiperidin-4-yl)methoxy)pyridin-3-yl)-3,6-dimethyl-4-oxo-3,4-dihydroquinazolin-8-yl)ethyl)amino)-N-(methylsulfonyl) picolinamide]"
250 to 500 nM,1000 to 5000 nM,"Cc1cc([C@@H](C)Nc2ccc(Cl)nc2C(=O)NS(C)(=O)=O)c2nc(N3C[C@@H]4[C@H](C3)[C@H]4c3nn(C)cc3F)n(C)c(=O)c2c1 [Compound 391, 6-chloro-3-(((R)-1-(2-((1R,5S,6R)-6-(4-fluoro-1-methyl-1H-pyrazol-3-yl)-3-azabicyclo[3.1.0]hexan-3-yl)-3,6-dimethyl-4-oxo-3,4-dihydroquinazolin-8-yl)ethyl)amino)-N-(methylsulfonyl) picolinamide]"
250 to 500 nM,≥ 5000 nM,"Cc1cc([C@@H](C)Nc2ccc(Cl)nc2C(=O)NS(C)(=O)=O)c2nc(N3C[C@@H]4[C@H](C3)[C@H]4c3ccn(C(C)C)n3)n(C)c(=O)c2c1 [Compound 395, 6-chloro-3-(((R)-1-(2-((1R,5S,6R)-6-(1-isopropyl-1H-pyrazol-3-yl)-3-azabicyclo[3.1.0]hexan-3-yl)-3,6-dimethyl-4-oxo-3,4-dihydroquinazolin-8-yl)ethyl)amino)-N-(methylsulfonyl) picolinamide]"
250 to 500 nM,≥ 5000 nM,"Cc1cc([C@@H](C)Nc2ccc(Cl)nc2C(=O)NS(C)(=O)=O)c2nc(N3CCC(c4cnccn4)CC3)n(C)c(=O)c2c1 [Compound 398, (R)-6-chloro-3-((1-(3,6-dimethyl-4-oxo-2-(4-(pyrazin-2-yl)piperidin-1-yl)-3,4-dihydroquinazolin-8-yl)ethyl)amino)-N-(methylsulfonyl) picolinamide]"
